# Laboratory results as given in patent US9801896B2, “Compositions comprising S-adenosylmethionine and a gallic acid ester” (Methylation Sciences International SRL, priority 2012, dated 2017).
# Columns and labels:
# [1] = Beagle plasma SAMe after tablets of SAMe co-formulated with alkyl gallates (Example 1); assay type: in vivo; settings: fasted male beagle dogs, single oral enteric coated tablet, 400 mg SAMe ion co-formulated with 25 mg gallic acid ester; FIG. 1; compared with other formulations
# Description: Tablets comprising SAMe and various alkyl gallates of different chemical structure were generated by mixing SAMe with either methyl gallate, ethyl gallate, butyl gallate, isobutyl gallate, isoamyl gallate or octyl gallate (see structures below). Tablets were then administered to Beagle dogs and blood samples were withdrawn over time. Analysis of concentrations of SAMe in plasma was used to compare the effects of these gallic acid esters on the uptake of orally administered SAMe in the blood.
# Tablets were generated by mixing 400 mg SAMe ion (from SAMe disulfate tosylate) with 25 mg gallic acid ester along with excipients (microcrystalline cellulose, sodium starch glycolate, silicon dioxide, and magnesium stearate) to make up the 1025 mg tablet. A commercial seal coat and then a commercial enteric coat was applied to the tablets prior to dissolution testing. Detailed dissolution profiling was performed according to USP standards at either pH 6.8 or 6.0 on each set of tablets to ensure that adequate dissolution was achieved prior to in vivo pharmacokinetic analysis.
# The study protocol was approved by the institution's Animal Care Committee, and all animals were cared for according to regulations proposed by Agriculture Canada and the USDA.
# Ten different formulations were tested in the present study. 400 mg SAMe co-formulated with 25 mg propyl gallate was compared to: SAMe control tablets (i.e., with no propyl gallate); SAMe tablets co-administered with separate 25 mg propyl gallate tablets; a commercially available SAMe product (400 mg); or 400 mg SAMe with 25 mg of either methyl gallate, ethyl gallate, butyl gallate, isobutyl gallate, isoamyl gallate or octyl gallate.
# Caco-2 cell monolayers = assay: Permeability of SAMe across Caco-2 cell monolayers with propyl gallate (Example 3)
# Description: The Caco-2 cell line is derived from a human colorectal carcinoma and is widely used for in vitro cell culture models for the study of gastrointestinal drug absorption (Stewart, B., (1995) Pharm. Res. 12:693). In these models, pure cell lines are grown on a semi-permeable membrane. Drug formulations are placed on the apical or basolateral side of the cell monolayer and transport is determined via measurement of drug concentrations on the other side of the membrane.
# The Caco-2 cell line utilized here was from the American Type Culture Collection (ATCC). Caco-2 cells are grown in Dulbecco's modified Eagle's medium (DMEM, Gibco) supplemented with 20% FBS (fetal bovine serum, Gibco), 100 uM non-essential amino acids (NEAA, Gibco) and 2 mM L-glutamine (Gibco). […] The cells used in transport studies were grown for 3 days before the experiments. The culturing conditions were 37° C. in an atmosphere of 5% CO2 and 100% humidity.
# A 2 mM aqueous solution of SAMe disulfate tosylate was added on the apical or basolateral side according to the manufacturer's procedure for the Caco-2 kit.
# The permeability (Papp) of SAMe is calculated using the following formula: […]
# Where dQ/dt is the rate of permeation, C0 is the initial concentration of test agent, and A is the area of the monolayer.
# [2] = Beagle plasma SAMe after capsules of SAMe with gallate-related molecules (Example 2); assay type: in vivo; settings: beagle dogs, single oral capsule, 100 mg SAMe ion with 100 mg agent; versus BHT, propyl paraben and gallic acid; FIGS. 2A, 2B
# Description: BHT, propyl paraben and propyl gallate are food-grade antioxidants which have often been used in combination. […] The capsules also contained additional excipients (Microcrystalline cellulose, Sodium Starch Glycolate, Colloidal Silicon Dioxide, and Magnesium Stearate). Capsules were manually filled and in some embodiments, a layer of commercial seal coat was applied to the capsules using a fluid bed coater. Beagle dogs were administered a single orally delivered dose as described above.
# [3] = Beagle pharmacokinetics of SAMe tablets with various amounts of propyl gallate (Example 6)
# Description: Tablets comprising SAMe and various amounts of propyl gallate were generated by mixing S-adenosyl-L-methionine disulfate tosylate granules (equivalent to 400 mg of SAMe ion) with the various amounts of propyl gallate listed in Table 4 below. Each mixture was pressed into a tablet and coated followed by dissolution profiling and in vivo pharmacokinetic analysis using beagle dogs.
# For in vivo studies, fasted male beagle dogs (7-10 kg) were used as described above. Each group (6 dogs for SAMe/propyl gallate and 6 dogs for the SAMe control lacking propyl gallate) were dosed with a single orally administered enteric coated tablet, under fasted conditions, followed by 5 mL of purified water orally with a syringe to facilitate swallowing. Pharmacokinetic blood samples (2 mL each) for SAMe analysis were collected from the jugular vein using the following time points: pre-dose, 20 and 40 minutes, 1, 1.5, 2, 3, 4, 6, and 8 hours after treatment. The venipuncture blood samples were collected into tubes containing the anticoagulant K2-EDTA, and stored on wet ice pending processing. Following collection, samples were centrifuged (at 4° C.) to separate the plasma fraction from the blood cells. […]
# The concentration of SAMe in dog plasma was determined using the well established LC/MS/MS method. […]
# [4] = PAMPA permeability of SAMe with and without propyl gallate (Example 4); assay type: in vitro ADME; settings: for Average Effective Permeability: PAMPA, SAMe 2 mM, 5 hr
# Description: Using a PAMPA (parallel artificial membrane permeability assay) model, the permeability of SAMe was measured in the presence and absence of propyl gallate.
# PAMPA methods were used to determine the permeability of substances from a donor compartment, through a lipid-infused artificial membrane into an acceptor compartment. A multi-well microtitre plate was used for the donor and a membrane/acceptor compartment is placed on top. At the beginning of the test, SAMe disulfate tosylate (with or without different concentrations of propyl gallate as indicated in Table 2 below) was added to the donor compartment, and the acceptor compartment remained drug-free. After an incubation period, the compartments were separated and the amount of SAMe was measured in each compartment. Mass balance allows calculation of SAMe that remains in the membrane.
compound,measurement,setting,value
CCCCCCCCOC(=O)c1cc(O)c(O)c(O)c1 [octyl gallate],"maximum SAMe plasma concentration (Cmax), uptake into the plasma",[1],superior uptake into the plasma
S-adenosyl-L-methionine disulfate tosylate [SAMe disulfate tosylate],"apparent permeability coefficient (Papp), apical to basolateral","Caco-2 cell monolayers; Caco-2, apical to basolateral, SAMe salt alone",0.41 ×10⁻⁶ cm/s
same,"apparent permeability coefficient (Papp), basolateral to apical","Caco-2 cell monolayers; Caco-2, basolateral to apical, SAMe salt alone",0.5 ×10⁻⁶ cm/s
CC(C)CCOC(=O)c1cc(O)c(O)c(O)c1 [isoamyl gallate],"maximum SAMe plasma concentration (Cmax), uptake into the plasma",[1],superior uptake into the plasma
CCCOC(=O)c1cc(O)c(O)c(O)c1 [propyl gallate],"maximum SAMe plasma concentration (Cmax), uptake into the plasma",[1],superior uptake into the plasma
same,"plasma SAMe Cmax and AUC, SAMe uptake into the blood",[2],superior and surprising ability
same,effect of propyl gallate on SAMe transport in Caco-2 cells,Caco-2 cell monolayers; summary of Table 1,increases SAMe transport
same,relationship of propyl gallate with SAMe uptake in vivo,"[3]; dog, in vivo",dose-response relationship
CCCCOC(=O)c1cc(O)c(O)c(O)c1 [butyl gallate],"maximum SAMe plasma concentration (Cmax), uptake into the plasma",[1],did not result in pharmacokinetics even close to that of SAMe-propyl gallate formulations
"C[S+](CC[C@H](N)C(=O)[O-])C[C@H]1O[C@@H](n2cnc3c(N)ncnc32)[C@H](O)[C@@H]1O (stereo partly drawn) [SAMe, S-adenosyl-L-methionine]",Average Effective Permeability,[4]; Propyl Gallate 0 mM,0.0042 ×10⁻⁶ cm/s
same,Average Effective Permeability,[4]; Propyl Gallate 0.2 mM,0.002 ×10⁻⁶ cm/s
same,Average Effective Permeability,[4]; Propyl Gallate 2 mM,0.0048 ×10⁻⁶ cm/s
same,transport of SAMe across the PAMPA membrane,[4]; summary of Table 2,essentially no transport
same,AUC(0-inf.) ± SD,"[3]; beagle, oral tablet, SAMe 400 mg, Propyl Gallate 6.25 mg","21,734 ± 9848^ hr*ng/mL"
CCOC(=O)c1cc(O)c(O)c(O)c1 [ethyl gallate],"maximum SAMe plasma concentration (Cmax), uptake into the plasma",[1],superior uptake into the plasma
